Results as given in ChEMBL document CHEMBL1151171, “New biologically active triterpenoid saponins from Scabiosa tschiliensis” (J Nat Prod, 2004).
Active and inactive are the calls of the source. The rule behind the calls is not given here.

Assays:
[1] = biological target: T1, Pancreatic triacylglycerol lipase (Homo sapiens) (UniProt P16233); assay: Inhibition of pancreatic lipase assessed as effect on oleic acid release from triolein at 1 mg/mL relative to control
T1 sequence (whole entry): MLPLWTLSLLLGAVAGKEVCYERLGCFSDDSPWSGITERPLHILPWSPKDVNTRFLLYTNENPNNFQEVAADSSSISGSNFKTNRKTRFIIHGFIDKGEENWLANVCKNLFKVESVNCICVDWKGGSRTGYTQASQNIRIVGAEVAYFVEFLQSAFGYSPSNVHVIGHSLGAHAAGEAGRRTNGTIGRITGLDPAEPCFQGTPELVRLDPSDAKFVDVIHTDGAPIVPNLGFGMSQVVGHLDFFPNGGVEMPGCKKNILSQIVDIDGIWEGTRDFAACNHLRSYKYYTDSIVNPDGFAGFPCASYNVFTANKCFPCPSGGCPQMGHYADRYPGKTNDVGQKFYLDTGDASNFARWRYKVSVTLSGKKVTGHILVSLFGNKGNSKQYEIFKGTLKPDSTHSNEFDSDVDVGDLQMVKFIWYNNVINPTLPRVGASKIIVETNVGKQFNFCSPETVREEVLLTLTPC

[2] = biological target: T1, Pancreatic triacylglycerol lipase (Homo sapiens); assay: Inhibition of pancreatic lipase assessed as effect on oleic acid release from triolein at 0.12 mg/mL relative to control
[3] = biological target: T1, Pancreatic triacylglycerol lipase (Homo sapiens); assay: Inhibition of pancreatic lipase assessed as effect on oleic acid release from triolein relative to control
[4] = biological target: T1, Pancreatic triacylglycerol lipase (Homo sapiens); assay: Inhibition of pancreatic lipase assessed as effect on oleic acid release from triolein at 0.005 mg/mL relative to control

Row | Activity [1] | other results | SMILES
1 | Active |  | C[C@@H]1O[C@@H](O[C@H]2[C@H](O[C@H]3CC[C@]4(C)[C@H]5CC=C6[C@@H]7CC(C)(C)CC[C@]7(C(=O)O[C@@H]7O[C@H](CO[C@@H]8O[C@H](CO)[C@@H](O)[C@H](O)[C@H]8O)[C@@H](O)[C@H](O)[C@H]7O)CC[C@@]6(C)[C@]5(C)CC[C@H]4C3(C)C)OC[C@@H](O)[C@@H]2O)[C@H](O)[C@H](O[C@@H]2OC[C@@H](O[C@@H]3O[C@H](CO)[C@@H](O)[C@H](O)[C@H]3O)[C@H](O)[C@H]2O)[C@H]1O
2 | Active |  | C[C@@H]1O[C@@H](O[C@H]2[C@H](O[C@H]3CC[C@]4(C)[C@H]5CC=C6[C@@H]7CC(C)(C)CC[C@]7(C(=O)O[C@@H]7O[C@H](CO[C@@H]8O[C@H](CO)[C@@H](O)[C@H](O)[C@H]8O)[C@@H](O)[C@H](O)[C@H]7O)CC[C@@]6(C)[C@]5(C)CC[C@H]4C3(C)C)OC[C@@H](O)[C@@H]2O)[C@H](O)[C@H](O[C@@H]2O[C@H](CO)[C@@H](O[C@@H]3O[C@H](CO)[C@@H](O)[C@H](O)[C@H]3O)[C@H](O)[C@H]2O)[C@H]1O
3 |  | Activity [2]: Active; Activity [3]: Active | C[C@@H]1O[C@@H](O[C@H]2[C@H](O[C@H]3CC[C@]4(C)[C@H]5CC=C6[C@@H]7CC(C)(C)CC[C@]7(C(=O)O)CC[C@@]6(C)[C@]5(C)CC[C@H]4C3(C)C)OC[C@H](O)[C@@H]2O)[C@H](O)[C@H](O[C@@H]2OC[C@@H](O[C@@H]3O[C@H](CO)[C@@H](O)[C@H](O)[C@H]3O)[C@H](O)[C@H]2O)[C@H]1O
4 | Active |  | C[C@@H]1O[C@@H](O[C@H]2[C@H](O[C@H]3CC[C@]4(C)[C@H]5CC=C6[C@@H]7CC(C)(C)CC[C@]7(C(=O)O[C@@H]7O[C@H](CO[C@@H]8O[C@H](CO)[C@@H](O)[C@H](O)[C@H]8O)[C@@H](O)[C@H](O)[C@H]7O)CC[C@@]6(C)[C@]5(C)CC[C@H]4C3(C)C)OC[C@@H](O)[C@@H]2O)[C@H](O)[C@H](O[C@@H]2OC[C@@H](O)[C@H](O)[C@H]2O)[C@H]1O
5 | Active |  | C[C@@H]1O[C@@H](O[C@H]2[C@H](O[C@H]3CC[C@]4(C)[C@H]5CC=C6[C@H]7[C@](C(=O)O[C@@H]8O[C@H](CO[C@@H]9O[C@H](CO)[C@@H](O)[C@H](O)[C@H]9O)[C@@H](O)[C@H](O)[C@H]8O)(CC[C@@H](C)[C@@]7(C)O)CC[C@@]6(C)[C@]5(C)CC[C@H]4C3(C)C)OC[C@H](O)[C@@H]2O)[C@H](O)[C@H](O[C@@H]2O[C@H](CO)[C@@H](O)[C@H](O)[C@H]2O)[C@H]1O
6 | Active |  | C[C@@H]1O[C@@H](O[C@H]2[C@H](O[C@H]3CC[C@]4(C)[C@H]5CC=C6[C@@H]7CC(C)(C)CC[C@]7(C(=O)O[C@@H]7O[C@H](CO[C@@H]8O[C@H](CO)[C@@H](O)[C@H](O)[C@H]8O)[C@@H](O)[C@H](O)[C@H]7O)CC[C@@]6(C)[C@]5(C)CC[C@H]4C3(C)C)OC[C@@H](O)[C@@H]2O)[C@H](O)[C@H](O[C@@H]2O[C@H](CO)[C@@H](O)[C@H](O)[C@H]2O)[C@H]1O
7 | Active |  | C[C@@H]1O[C@@H](O[C@H]2[C@H](O[C@H]3CC[C@]4(C)[C@H]5CC=C6[C@@H]7CC(C)(C)CC[C@]7(C(=O)O[C@@H]7O[C@H](CO[C@@H]8O[C@H](CO)[C@@H](O)[C@H](O)[C@H]8O)[C@@H](O)[C@H](O)[C@H]7O)CC[C@@]6(C)[C@]5(C)CC[C@H]4C3(C)C)OC[C@@H](O)[C@@H]2O)[C@H](O)[C@H](O[C@@H]2OC[C@@H](O[C@@H]3O[C@H](CO)[C@@H](O[C@@H]4OC[C@@H](O)[C@H](O)[C@H]4O)[C@H](O)[C@H]3O)[C@H](O)[C@H]2O)[C@H]1O
8 |  | Activity [4]: Active | CCCCCCCCCCC[C@@H](C[C@@H]1OC(=O)[C@H]1CCCCCC)OC(=O)[C@H](CC(C)C)NC=O
